Source: patent US8652522B2, “Pharmaceutical composition of an iontophoresis” (Teikoku Seiyaku Co., Ltd., priority 2009, dated 2014)
Like-named read-outs stand apart in the source and are kept apart here. Blank lines part the entries; values can stand above or below the molecule they belong to.

Experiments:
[1] = Procedure: (§1) Moreover, the condition of the transdermally administration in association with the treatment of applying current is as follows.
(§2) This was funneled into a patch comprising an electrode and an adhesion layer, and cooled down at −80° C. to obtain a desired drug product.
After that, an embedded freezing block was directed to the cutter of the microtome stage for mounting (CRYOMACROCUT, Leica), and a femoral region thereof was directed to the front, and a neck region was directed to the backside, and was fixed with being in close contact with the backside of the leg to the stage for mounting. When the stage for mounting of microtome was slid, the cutter was contacted perpendicular with the narrow side of the rectangular, the upper surface of this was chipped off as a sliced segment, the sliced segment was in close contact to the adhesive tape, and removed. This operation was repeated a couple dozens times, it was cleaved from the front portion of the knee to the backside portion, a segment of the administration and current-carrying part was (1) to (7) (from the front to the backside) in order of precedence.

[2] = blood plasma
Procedure: as §1, §2
Two NZ family male rabbits to be devoted to the test was bought from […] LABES Co., Ltd., (Charles River Japan, Inc.). […] The observation of the animal during the preliminary breeding and the test, as to a hair coat, a skin and a excretory substance was carried out every day.
The administration route: the transdermally administration in association with the treatment of applying current
The radioactivity density assay in the blood plasma was carried out as follows.
A sample for assay was treated by adding the solubilizing agent, and the measurement of the sample was carried out by using the liquid scintillation counter (LSC-1000, ALOKA). The limit of determinate quantity was two folds of the background, and the lesser value of the limit was determined as ND. The radioactivity density assay in the blood plasma was calculated from the measured value.
The radioactivity density is used as indication pointer, the calibrated concentration of the chemical drug converted with unaltered substance was calculated by the following formula. The calibrated concentration of the chemical drug (μg eq./mL)=The radioactivity density in the sample (dpm/mL)/{the amount of the administration radioactivity (dpm)/the amount of the administration chemical drug (μg)}

Remark: listed apart in the source

blackened image according to 3H, cingulum of the perimysial tissue (perimysium) ([1]; existing up to the reticular dermis located in the inner side of the epidermal tissue): high density
blackened image according to 3H at a fibrous encapsulation and a synovium membrane ([1]; synovial joint, administration time 120 minutes and 30 minutes): very slight amount
average of drug conversion ([2]; 30 min. administration individual, 10 minutes): 0.01 μg eq./mL
average of drug conversion ([2]; 30 min. administration individual, 20 minutes): 0.03 μg eq./mL
average of drug conversion ([2]; 30 min. administration individual, 30 minutes): 0.09 μg eq./mL
average of drug conversion ([2]; 120 min. administration individual, 10 minutes): 0.04 μg eq./mL
average of drug conversion ([2]; 120 min. administration individual, 20 minutes): 0.09 μg eq./mL
average of drug conversion ([2]; 120 min. administration individual, 30 minutes): 0.23 μg eq./mL
average of drug conversion ([2]; 120 min. administration individual, 60 minutes): 0.66 μg eq./mL
average of drug conversion ([2]; 120 min. administration individual, 90 minutes): 0.91 μg eq./mL
average of drug conversion ([2]; 120 min. administration individual, 120 minutes): 1.17 μg eq./mL
SMILES: CC1CC2C3CCC4=CC(=O)C=CC4(C)C3(F)C(O)CC2(C)C1(O)C(=O)COP(=O)([O-])[O-].[Na+].[Na+] (stereo not drawn) [[^3H] Betamethasone-21-phosphate disodium salt]

pair theoritical value % Mean (N2-W (nitrogen-bubbled purified water), 4° C. 1 month): 107.68%
pair theoritical value % Mean (N2-W (nitrogen-bubbled purified water), 4° C. 2 weeks): 99.20%
pair theoritical value % Mean (N2-W (nitrogen-bubbled purified water), 4° C. 4 month): 100.06%
pair theoritical value % Mean (N2-W (nitrogen-bubbled purified water), 4° C. 6 month): 98.27%
pair theoritical value % Mean (N2-W (nitrogen-bubbled purified water), 40° C. 1 month): 85.82%
pair theoritical value % Mean (N2-W (nitrogen-bubbled purified water), 40° C. 4 month): 100.30%
pair theoritical value % Mean (N2-W (nitrogen-bubbled purified water), 50° C. 1 month): 89.72%
pair theoritical value % Mean (N2-W (nitrogen-bubbled purified water), 50° C. 4 month): 77.62%
pair theoritical value % Mean (N2-W (nitrogen-bubbled purified water), 60° C. 1 month): 38.91%
pair theoritical value % Mean (N2-W (nitrogen-bubbled purified water), 60° C. 2 weeks): 91.76%
pair theoritical value % Mean (N2-W (nitrogen-bubbled purified water), 60° C. 4 month): 41.97%
pair theoritical value % Mean (W (purified water), 4° C. 1 month): 101.42%
pair theoritical value % Mean (W (purified water), 4° C. 2 weeks): 101.05%
pair theoritical value % Mean (W (purified water), 4° C. 4 month): 110.24%
pair theoritical value % Mean (W (purified water), 4° C. 6 month): 98.01%
pair theoritical value % Mean (W (purified water), 40° C. 1 month): 96.79%
pair theoritical value % Mean (W (purified water), 40° C. 4 month): 100.99%
pair theoritical value % Mean (W (purified water), 50° C. 1 month): 78.74%
pair theoritical value % Mean (W (purified water), 50° C. 4 month): 70.87%
pair theoritical value % Mean (W (purified water), 60° C. 1 month): 33.60%
pair theoritical value % Mean (W (purified water), 60° C. 2 weeks): 85.69%
pair theoritical value % Mean (W (purified water), 60° C. 4 month): 17.67%
pair theoritical value % Mean (pH 2, 4° C. 1 month): 81.61%
pair theoritical value % Mean (pH 2, 4° C. 2 weeks): 75.50%
pair theoritical value % Mean (pH 2, 4° C. 4 month): 121.42%
pair theoritical value % Mean (pH 2, 40° C. 1 month): 62.65%
pair theoritical value % Mean (pH 2, 40° C. 4 month): 57.15%
pair theoritical value % Mean (pH 2, 40° C. 6 month): 33.20%
pair theoritical value % Mean (pH 2, 50° C. 1 month): 55.83%
pair theoritical value % Mean (pH 2, 50° C. 4 month): 22.44%
pair theoritical value % Mean (pH 2, 60° C. 1 month): 14.90%
pair theoritical value % Mean (pH 2, 60° C. 2 weeks): 42.03%
pair theoritical value % Mean (pH 2, 60° C. 4 month): 2.79%
pair theoritical value % Mean (pH 3, 4° C. 1 month): 82.46%
pair theoritical value % Mean (pH 3, 4° C. 2 weeks): 85.23%
pair theoritical value % Mean (pH 3, 4° C. 4 month): 104.26%
pair theoritical value % Mean (pH 3, 40° C. 1 month): 82.48%
pair theoritical value % Mean (pH 3, 40° C. 4 month): 73.33%
pair theoritical value % Mean (pH 3, 40° C. 6 month): 50.00%
pair theoritical value % Mean (pH 3, 50° C. 1 month): 64.66%
pair theoritical value % Mean (pH 3, 50° C. 4 month): 32.84%
pair theoritical value % Mean (pH 3, 60° C. 1 month): 17.55%
pair theoritical value % Mean (pH 3, 60° C. 2 weeks): 50.37%
pair theoritical value % Mean (pH 3, 60° C. 4 month): 3.46%
pair theoritical value % Mean (pH 4, 4° C. 1 month): 95.85%
pair theoritical value % Mean (pH 4, 4° C. 2 weeks): 89.42%
pair theoritical value % Mean (pH 4, 4° C. 4 month): 108.15%
pair theoritical value % Mean (pH 4, 4° C. 6 month): 81.32%
pair theoritical value % Mean (pH 4, 40° C. 1 month): 81.36%
pair theoritical value % Mean (pH 4, 40° C. 4 month): 77.80%
pair theoritical value % Mean (pH 4, 40° C. 6 month): 53.22%
pair theoritical value % Mean (pH 4, 50° C. 1 month): 63.08%
pair theoritical value % Mean (pH 4, 50° C. 4 month): 31.80%
pair theoritical value % Mean (pH 4, 60° C. 1 month): 19.17%
pair theoritical value % Mean (pH 4, 60° C. 2 weeks): 52.38%
pair theoritical value % Mean (pH 4, 60° C. 4 month): 3.38%
pair theoritical value % Mean (pH 5, 4° C. 1 month): 93.36%
pair theoritical value % Mean (pH 5, 4° C. 2 weeks): 94.34%
pair theoritical value % Mean (pH 5, 4° C. 4 month): 109.24%
pair theoritical value % Mean (pH 5, 4° C. 6 month): 90.85%
pair theoritical value % Mean (pH 5, 40° C. 1 month): 78.88%
pair theoritical value % Mean (pH 5, 40° C. 4 month): 82.09%
pair theoritical value % Mean (pH 5, 50° C. 1 month): 75.05%
pair theoritical value % Mean (pH 5, 50° C. 4 month): 32.88%
pair theoritical value % Mean (pH 5, 60° C. 1 month): 17.09%
pair theoritical value % Mean (pH 5, 60° C. 2 weeks): 56.51%
pair theoritical value % Mean (pH 5, 60° C. 4 month): 3.34%
pair theoritical value % Mean (pH 6, 4° C. 1 month): 104.98%
pair theoritical value % Mean (pH 6, 4° C. 2 weeks): 98.90%
pair theoritical value % Mean (pH 6, 4° C. 4 month): 107.46%
pair theoritical value % Mean (pH 6, 4° C. 6 month): 97.60%
pair theoritical value % Mean (pH 6, 40° C. 1 month): 86.51%
pair theoritical value % Mean (pH 6, 40° C. 4 month): 89.24%
pair theoritical value % Mean (pH 6, 50° C. 1 month): 75.38%
pair theoritical value % Mean (pH 6, 50° C. 4 month): 41.48%
pair theoritical value % Mean (pH 6, 60° C. 1 month): 25.28%
pair theoritical value % Mean (pH 6, 60° C. 2 weeks): 69.99%
pair theoritical value % Mean (pH 6, 60° C. 4 month): 5.85%
pair theoritical value % Mean (pH 7, 4° C. 1 month): 110.30%
pair theoritical value % Mean (pH 7, 4° C. 2 weeks): 100.23%
pair theoritical value % Mean (pH 7, 4° C. 4 month): 105.27%
pair theoritical value % Mean (pH 7, 4° C. 6 month): 101.38%
pair theoritical value % Mean (pH 7, 40° C. 1 month): 89.32%
pair theoritical value % Mean (pH 7, 40° C. 4 month): 102.71%
pair theoritical value % Mean (pH 7, 50° C. 1 month): 86.96%
pair theoritical value % Mean (pH 7, 50° C. 4 month): 66.49%
pair theoritical value % Mean (pH 7, 60° C. 1 month): 36.13%
pair theoritical value % Mean (pH 7, 60° C. 2 weeks): 87.22%
pair theoritical value % Mean (pH 7, 60° C. 4 month): 25.71%
pair theoritical value % Mean (pH 8, 4° C. 1 month): 97.51%
pair theoritical value % Mean (pH 8, 4° C. 2 weeks): 104.91%
pair theoritical value % Mean (pH 8, 4° C. 4 month): 108.32%
pair theoritical value % Mean (pH 8, 4° C. 6 month): 103.29%
pair theoritical value % Mean (pH 8, 40° C. 1 month): 90.10%
pair theoritical value % Mean (pH 8, 40° C. 4 month): 106.12%
pair theoritical value % Mean (pH 8, 50° C. 1 month): 103.57%
pair theoritical value % Mean (pH 8, 50° C. 4 month): 83.79%
pair theoritical value % Mean (pH 8, 60° C. 1 month): 45.01%
pair theoritical value % Mean (pH 8, 60° C. 2 weeks): 95.80%
pair theoritical value % Mean (pH 8, 60° C. 4 month): 61.99%
SMILES: C[C@H]1C[C@H]2[C@@H]3CCC4=CC(=O)C=C[C@]4(C)[C@@]3(F)[C@@H](O)C[C@]2(C)[C@@]1(O)C(=O)COP(=O)([O-])[O-].[Na+].[Na+] [betamethasone sodium phosphate]
